# Biological target: T1, LoxR (Kosakonia pseudosacchari, UniProt A0ABX4IX59)
# T1 construct: gene BK796_01250; full-length, His6-tagged (pET22b NdeI/XhoI, tag at C-terminus by vector), E. coli BL21(DE3) pLysS; forward primer encodes N-terminus MQDTEFFT
# Assay: co-purification of complex (Ni-NTA, gel filtration), LC-MS/MS detection of coeluting AHL; ligand-dependent solubility
# Type: binding
# Conditions: expressed with 10 uM AHL, 16°C; pH 8.5
# T1 sequence (A0ABX4IX59 entry or part of it): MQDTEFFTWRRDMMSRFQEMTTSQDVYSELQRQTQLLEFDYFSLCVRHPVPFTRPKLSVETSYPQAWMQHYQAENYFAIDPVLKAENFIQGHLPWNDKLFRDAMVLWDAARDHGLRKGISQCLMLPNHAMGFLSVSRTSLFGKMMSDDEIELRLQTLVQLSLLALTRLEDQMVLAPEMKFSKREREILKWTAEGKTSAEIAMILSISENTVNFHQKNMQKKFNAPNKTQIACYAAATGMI
row,SMILES,"co-purification of complex (Ni-NTA, gel filtration), LC-MS/MS detection of coelu"
1,CCCCCCCCCC(=O)CC(=O)N[C@H]1CCOC1=O [OC12-HSL],OC12-HSL was also able to solubilize LoxR (data not shown)
2,CCCCCC(=O)N[C@H]1CCOC1=O [C6-HSL],It was therefore concluded that AHLs solubilize and bind to LoxR.

# Biological target: T1, LoxR
# Assay: ligand-dependent solubility on expression in E. coli (total extract vs soluble fraction)
# Type: cell-based
# Conditions: expressed in E. coli in presence of AHL, 0.2 mM IPTG, 37°C overnight
row,SMILES,ligand-dependent solubility on expression in E. coli (total extract vs soluble f)
1,CCCC(=O)CC(=O)N[C@H]1CCOC1=O [OC6-HSL],LoxR was soluble when bound and insoluble when unbound to AHLs
2,CCCC(O)CC(=O)N[C@H]1CCOC1=O (stereo partly drawn) [OHC6-HSL],LoxR was soluble when bound and insoluble when unbound to AHLs
3,CCCCCC(=O)CC(=O)N[C@H]1CCOC1=O [OC8-HSL],LoxR was soluble when bound and insoluble when unbound to AHLs
4,CCCCCCCCCC(=O)N[C@H]1CCOC1=O [C10-HSL],LoxR was soluble when bound and insoluble when unbound to AHLs

# — paper PMC7301841, “LuxR Solos in the Plant Endophyte Kosakonia sp. Strain KO348” (Applied and Environmental Microbiology, 2020)
